Laboratory results as given in patent US11478478B2, “2,3-disubstituted 1-acyl-4-amino-1,2,3,4-tetrahydroquinoline derivatives and their use as bromodomain inhibitors” (GLAXOSMITHKLINE INTELLECTUAL PROPERTY (NO.2) LIMITED, priority 2013, dated 2022).

Target: T1, BRD4 BD2 (Homo sapiens, UniProt O60885, Y97A)
T1 construct: BRD4 (1-477) (Y97A) and (Y390A); made in house; host or cells: E. coli (pET15b vector)
Assay: TR-FRET binding assay, BRD4 BD2 (BD1-mutated protein)
Settings: read-out: pIC50 in the BRD4 BD2 assay (converted)
Procedure, shortened: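 Displacement of Alexa Fluor647-labelled bromodomain ligand (at Kd) from 10 nM His-tagged BRD4 (1-477, Y97A) read by Eu-anti-His TR-FRET (665/615 ratio) in pH 7.4 HEPES buffer, 0.5% DMSO. Compound preincubated 30 min at rt, detection ≥30 min. pIC50 derived from four-parameter fit after normalisation to controls.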

| Structure (SMILES) | IC50 |
| --- | --- |
| CC(=O)N1c2ccc(C(=O)N[C@@H]3CCOC3)cc2[C@H](Nc2cccc(C)n2)[C@@H](C)[C@@H]1C1CC1 [Example 261, (2S,3R,4R)-1-acetyl-2-cyclopropyl-3-methyl-4-((6-methylpyridin-2-yl)amino)-N—((R)-tetrahydrofuran-3-yl)-1,2,3,4-tetrahydroquinoline-6-carboxamide] | 100 nM |
| CC(=O)N1c2ccc(C(=O)NCCS(C)(=O)=O)cc2[C@H](Nc2cccc(C)n2)[C@@H](C)[C@@H]1C1CC1 [Example 262, (2S,3R,4R)-1-acetyl-2-cyclopropyl-3-methyl-4-((6-methylpyridin-2-yl)amino)-N-(2-(methylsulfonyl)ethyl)-1,2,3,4-tetrahydroquinoline-6-carboxamide] | 100 nM |
| CC(=O)N1c2ccc(C(N)=O)cc2[C@H](Nc2nccc(C)n2)[C@@H](C)[C@@H]1C1CC1 [Example 291, (2S,3R,4R)-1-acetyl-2-cyclopropyl-3-methyl-4-((4-methylpyrimidin-2-yl)amino)-1,2,3,4-tetrahydroquinoline-6-carboxamide] | 100 nM |
| CC(=O)N1c2ccc(C#N)cc2[C@H](Nc2cccc(CN(C)C)n2)[C@@H](C)[C@@H]1C1CC1 [Example 298, (2S,3R,4R)-1-acetyl-2-cyclopropyl-4-((6-((dimethylamino)methyl)pyridin-2-yl)amino)-3-methyl-1,2,3,4-tetrahydroquinoline-6-carbonitrile] | 1000 to 100000 nM |
| CC(=O)N1c2ccc(C#N)cc2[C@H](Nc2ncccc2C(N)=O)[C@@H](C)[C@@H]1C1CC1 [Example 314, 2-(((2S,3R,4R)-1-acetyl-6-cyano-2-cyclopropyl-3-methyl-1,2,3,4-tetrahydroquinolin-4-yl)amino)nicotinamide] | 100 nM |
| CC(=O)N1c2ccc(C#N)cc2[C@H](Nc2cccc(C(N)=O)n2)[C@@H](C)[C@@H]1C1CC1 [Example 316, 6-(((2S,3R,4R)-1-acetyl-6-cyano-2-cyclopropyl-3-methyl-1,2,3,4-tetrahydroquinolin-4-yl)amino)picolinamide] | 1000 to 100000 nM |
| CC(=O)N1c2ccc(C#N)cc2[C@H](Nc2cccc(OCCN)n2)[C@@H](C)[C@@H]1C1CC1 [Example 318, (2S,3R,4R)-1-acetyl-4-((6-(2-aminoethoxy)pyridin-2-yl)amino)-2-cyclopropyl-3-methyl-1,2,3,4-tetrahydroquinoline-6-carbonitrile] | 100 nM |
| CC[C@H]1[C@H](C)[C@@H](Nc2ccc(C#N)cc2)c2cc(C(=O)O)ccc2N1C(C)=O [Example 331, (2S,3R,4R)-1-acetyl-4-((4-cyanophenyl)amino)-2-ethyl-3-methyl-1,2,3,4-tetrahydroquinoline-6-carboxylic acid] | 100 nM |
| CC(=O)N1c2ccc(C(=O)O)cc2[C@H](Nc2ccc(S(C)(=O)=O)cc2)[C@@H](C)[C@@H]1C1CC1 [Example 332, (2S,3R,4)-1-acetyl-2-cyclopropyl-3-methyl-4-((4-(methylsulfonyl)phenyl)amino)-1,2,3,4-tetrahydroquinoline-6-carboxylic acid] | 1000 to 100000 nM |
| COc1cnc(N[C@H]2c3cc(C(N)=O)ccc3N(C(C)=O)[C@@H](C3CC3)[C@@H]2C)nc1C [Example 348, (2S,3R,4R)-1-acetyl-2-cyclopropyl-4-((5-methoxy-4-methylpyrimidin-2-yl)amino)-3-methyl-1,2,3,4-tetrahydroquinoline-6-carboxamide] | 1000 to 100000 nM |
| CC(=O)N1c2ccc(C(N)=O)cc2[C@H](Nc2cccc(CO)n2)[C@@H](C)[C@@H]1C1CC1 [Example 350, (2S,3R,4R)-1-acetyl-2-cyclopropyl-4-((6-(hydroxymethyl)pyridin-2-yl)amino)-3-methyl-1,2,3,4-tetrahydroquinoline-6-carboxamide] | 100 nM |
| CC(=O)N1c2ccc(C(N)=O)cc2[C@H](Nc2cccc(F)c2)[C@@H](C)[C@@H]1C1CC1 [Example 359, (2S,3R,4R)-1-acetyl-2-cyclopropyl-4-((3-fluorophenyl)amino)-3-methyl-1,2,3,4-tetrahydroquinoline-6-carboxamide] | 100 nM |
| COc1cccc(N[C@H]2c3cc(C(N)=O)ccc3N(C(C)=O)[C@@H](C3CC3)[C@@H]2C)c1 [Example 360, (2S,3R,4R)-1-acetyl-2-cyclopropyl-4-((3-methoxyphenyl)amino)-3-methyl-1,2,3,4-tetrahydroquinoline-6-carboxamide] | 100 nM |
| CC(=O)N1c2ccc(C(N)=O)cc2[C@H](Nc2ccc(C#N)cc2)[C@@H](C)[C@@H]1C1CC1 [Example 378, (2S,3R,4R)-1-acetyl-4-((4-cyanophenyl)amino)-2-cyclopropyl-3-methyl-1,2,3,4-tetrahydroquinoline-6-carboxamide] | 100 nM |
| CC(=O)N1c2ccc(C(N)=O)cc2[C@H](Nc2ccc(Cl)cn2)[C@@H](C)[C@@H]1C1CC1 [Example 379, (2S,3R,4R)-1-acetyl-4-((5-chloropyridin-2-yl)amino)-2-cyclopropyl-3-methyl-1,2,3,4-tetrahydroquinoline-6-carboxamide] | 100 nM |
| CC(=O)N1c2ccc(C(N)=O)cc2[C@H](Nc2nccc(N(C)C)n2)[C@@H](C)[C@@H]1C1CC1 [Example 387, (2S,3R,4R)-1-acetyl-2-cyclopropyl-4-((4-(dimethylamino)pyrimidin-2-yl)amino)-3-methyl-1,2,3,4-tetrahydroquinoline-6-carboxamide] | 1000 to 100000 nM |
| COc1cc(C#N)ccc1N[C@H]1c2cc(C(N)=O)ccc2N(C(C)=O)[C@@H](C2CC2)[C@@H]1C [Example 390, (2S,3R,4R)-1-acetyl-4-((4-cyano-2-methoxyphenyl)amino)-2-cyclopropyl-3-methyl-1,2,3,4-tetrahydroquinoline-6-carboxamide] | 100 nM |
| CC(=O)N1c2ccc(C(N)=O)cc2[C@H](Nc2cnc(C#N)c(Cl)c2)[C@@H](C)[C@@H]1C1CC1 [Example 391, (2S,3R,4R)-1-acetyl-4-((5-chloro-6-cyanopyridin-3-yl)amino)-2-cyclopropyl-3-methyl-1,2,3,4-tetrahydroquinoline-6-carboxamide] | 1000 to 100000 nM |
| COc1ccc(N[C@H]2c3cc(C(N)=O)ccc3N(C(C)=O)[C@@H](C3CC3)[C@@H]2C)c(C#N)c1 [Example 392, (2S,3R,4R)-1-acetyl-4-((2-cyano-4-methoxyphenyl)amino)-2-cyclopropyl-3-methyl-1,2,3,4-tetrahydroquinoline-6-carboxamide] | 100 nM |
| CC(=O)N1c2ccc(C(N)=O)cc2[C@H](Nc2ncccn2)[C@@H](C)[C@@H]1C1CC1 [Example 399, (2S,3R,4R)-1-acetyl-2-cyclopropyl-3-methyl-4-(pyrimidin-2-ylamino)-1,2,3,4-tetrahydroquinoline-6-carboxamide] | 100 nM |
| CC(=O)N1c2ccc(C(N)=O)cc2[C@H](Nc2ccc(C#N)cn2)[C@@H](C)[C@@H]1C1CC1 [Example 400, (2S,3R,4R)-1-acetyl-4-((5-cyanopyridin-2-yl)amino)-2-cyclopropyl-3-methyl-1,2,3,4-tetrahydroquinoline-6-carboxamide] | 100 nM |
| CC(=O)N1c2ccc(C(N)=O)cc2[C@H](Nc2ncc(Cl)cn2)[C@@H](C)[C@@H]1C1CC1 [Example 403, (2S,3R,4R)-1-acetyl-4-((5-chloropyrimidin-2-yl)amino)-2-cyclopropyl-3-methyl-1,2,3,4-tetrahydroquinoline-6-carboxamide] | 100 nM |
| CCc1ccnc(N[C@H]2c3cc(C(N)=O)ccc3N(C(C)=O)[C@@H](C3CC3)[C@@H]2C)n1 [Example 407, (2S,3R,4R)-1-acetyl-2-cyclopropyl-4-((4-ethylpyrimidin-2-yl)amino)-3-methyl-1,2,3,4-tetrahydroquinoline-6-carboxamide] | 100 nM |
| CC(=O)N1c2ccc(C(N)=O)cc2[C@H](Nc2nc(C)cc(C)n2)[C@@H](C)[C@@H]1C1CC1 [Example 408, (2S,3R,4R)-1-acetyl-2-cyclopropyl-4-((4,6-dimethylpyrimidin-2-yl)amino)-3-methyl-1,2,3,4-tetrahydroquinoline-6-carboxamide] | 1000 to 100000 nM |
| CC(=O)N1c2ccc(C(N)=O)cc2[C@H](Nc2nccc(C(C)C)n2)[C@@H](C)[C@@H]1C1CC1 [Example 411, (2S,3R,4R)-1-acetyl-2-cyclopropyl-4-((4-isopropylpyrimidin-2-yl)amino)-3-methyl-1,2,3,4-tetrahydroquinoline-6-carboxamide] | 100 nM |
| CC(=O)N1c2ccc(C(N)=O)cc2[C@H](Nc2nccc(C3=CCOCC3)n2)[C@@H](C)[C@@H]1C1CC1 [Example 413] | 100 nM |
| CC(=O)N1c2ccc(C(N)=O)cc2[C@H](Nc2ncccc2C(N)=O)[C@@H](C)[C@@H]1C1CC1 [Example 418, (2S,3R,4R)-1-acetyl-4-((3-carbamoylpyridin-2-yl)amino)-2-cyclopropyl-3-methyl-1,2,3,4-tetrahydroquinoline-6-carboxamide] | 100 nM |
| Cc1ccnc(N[C@H]2c3cc(C(N)=O)ccc3N(C(=O)C(C)C)[C@@H](C3CC3)[C@@H]2C)n1 [Example 422, (2S,3R,4R)-2-cyclopropyl-1-isobutyryl-3-methyl-4-((4-methylpyrimidin-2-yl)amino)-1,2,3,4-tetrahydroquinoline-6-carboxamide] | 1000 to 100000 nM |
| CC(=O)N1c2ccc(C(=O)NCCO)cc2[C@H](Nc2ncc(F)c(C)n2)[C@@H](C)[C@@H]1C [Example 430, (2S,3R,4R)-1-acetyl-4-((5-fluoro-4-methylpyrimidin-2-yl)amino)-N-(2-hydroxyethyl)-2,3-dimethyl-1,2,3,4-tetrahydroquinoline-6-carboxamide] | 100 nM |
| CC(=O)N1c2ccc(C(=O)NCCO)cc2[C@H](Nc2ccc(F)c(C)n2)[C@@H](C)[C@@H]1C [Example 433, (2S,3R,4R)-1-acetyl-4-((5-fluoro-6-methylpyridin-2-yl)amino)-N-(2-hydroxyethyl)-2,3-dimethyl-1,2,3,4-tetrahydroquinoline-6-carboxamide] | 100 nM |
